# Results published in US12122761B2, “2-azaspiro[3.4]octane derivatives as M4 agonists” (NOVARTIS AG, priority 2019, dated 2024).
# Experiments:
# [1] = biological target: T1, Cloned human M1 receptor (CHRM1) stably expressed in HEK293 cells (Homo sapiens, UniProt P11229); experiment: CHRM1 Ca++ Flux Assay (agonist mode, FDSS 7000EX); format: cell-based; settings: for Emax: HEK293, Percent Activity, read-out: M1 FDSS PA; for EC50: geometric mean if tested more than once
# T1 construct: expressed in transfected cells; host or cells: HEK293
# T1 sequence (P11229 1-460): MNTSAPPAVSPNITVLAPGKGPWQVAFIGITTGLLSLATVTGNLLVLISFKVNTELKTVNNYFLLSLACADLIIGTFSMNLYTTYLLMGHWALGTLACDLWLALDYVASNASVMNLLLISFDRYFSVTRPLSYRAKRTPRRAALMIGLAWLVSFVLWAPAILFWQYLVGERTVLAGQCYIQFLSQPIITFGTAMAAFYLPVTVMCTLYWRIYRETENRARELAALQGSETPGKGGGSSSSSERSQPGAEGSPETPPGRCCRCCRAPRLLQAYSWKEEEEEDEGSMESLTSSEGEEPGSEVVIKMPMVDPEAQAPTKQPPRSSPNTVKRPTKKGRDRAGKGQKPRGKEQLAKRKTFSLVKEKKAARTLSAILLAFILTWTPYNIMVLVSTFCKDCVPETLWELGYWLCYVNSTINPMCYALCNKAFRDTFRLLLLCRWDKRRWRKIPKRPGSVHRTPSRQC
# Procedure, shortened: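 Compounds tested as agonists at 11 concentrations in triplicate, with calcium traces captured over 3 minutes. Cells were HEK293 with stable human CHRM1 expression, plated overnight at 25K/well and loaded with calcium dye. Responses normalized to carbachol EC100 and fitted by four-parameter nonlinear regression.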
# [2] = biological target: T2, human cloned CHRM3 receptor (M3_CHO cells) (Homo sapiens, UniProt P20309); experiment: CHRM3 Ca++ Flux Assay (agonist mode, FDSS 7000EX); format: cell-based; settings: for Emax: Percent Activity measured to EC100 of Carbachol, read-out: M3 FDSS PA; for EC50: agonist mode, geometric mean if tested more than once, read-out: M3 FDSS EC50
# T2 construct: expressed in transfected cells; host or cells: CHO-K1
# T2 sequence (P20309 whole entry): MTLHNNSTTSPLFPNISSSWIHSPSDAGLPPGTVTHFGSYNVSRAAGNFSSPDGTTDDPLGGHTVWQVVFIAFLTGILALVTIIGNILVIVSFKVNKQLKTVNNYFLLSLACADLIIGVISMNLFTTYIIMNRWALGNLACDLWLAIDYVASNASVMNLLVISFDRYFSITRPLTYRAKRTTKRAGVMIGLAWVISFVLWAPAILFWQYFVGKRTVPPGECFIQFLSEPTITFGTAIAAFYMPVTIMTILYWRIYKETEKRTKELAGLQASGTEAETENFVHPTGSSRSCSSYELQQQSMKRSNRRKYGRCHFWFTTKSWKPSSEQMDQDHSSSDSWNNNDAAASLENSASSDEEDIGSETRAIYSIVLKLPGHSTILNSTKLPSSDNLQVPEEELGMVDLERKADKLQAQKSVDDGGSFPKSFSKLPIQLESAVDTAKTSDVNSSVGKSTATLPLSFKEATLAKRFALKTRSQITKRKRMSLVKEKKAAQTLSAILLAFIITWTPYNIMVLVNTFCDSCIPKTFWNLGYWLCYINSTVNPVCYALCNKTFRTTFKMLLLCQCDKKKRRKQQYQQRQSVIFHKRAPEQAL
# Procedure, shortened: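 Agonist-mode calcium flux: 11-point dose responses, triplicate wells, fluorescence followed for 3 minutes. Cells are M3_CHO or M5_CHO lines (human receptors) with Ca++ indicator in probenecid-containing HEPES/HBSS buffer. Percent activity is referenced to carbachol EC100, and curves come from four-parameter nonlinear regression.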
SMILES,Emax [1],EC50 [1],Emax [2],EC50 [2]
"Fc1ccc(C2CCOC2)c(C2CCN([C@@H]3CCC4(C3)CN(c3nnco3)C4)CC2)c1 (mixture of isomers) [Example 2J, 2-((6R)-6-(4-(5-fluoro-2-(tetrahydrofuran-3-yl)phenyl)piperidin-1-yl)-2-azaspiro[3.4]octan-2-yl)-1,3,4-oxadiazole]",97%,0.046 µM,0%,> 25 µM
"O=C(C1COC1)N1CC2(CC[C@H](N3CCC(c4ccccc4OC(F)(F)F)CC3)C2)C1 (single isomer, unassigned) [Example 8G]",0%,> 25 µM,0%,> 25 µM
"O=C(N1CC2(CC[C@H](N3CCC(c4ccccc4C4CCOCC4)CC3)C2)C1)C1(F)CC1 (single isomer, unassigned) [Example 9M]",0%,6.44 µM,0%,> 25 µM
"c1ccc(C2CCN([C@H]3CCC4(C3)CN(c3nnco3)C4)CC2)c(C2CCOCC2)c1 (single isomer, unassigned) [Example 10T]",21%,3.92 µM,0%,> 25 µM
"c1ccc(C2CCN([C@@H]3CCC4(C3)CN(c3nnco3)C4)CC2)c(OC2CC3(COC3)C2)c1 [Example 1A, (R)-2-(6-(4-(2-((2-oxaspiro[3.3]heptan-6-yl)oxy)phenyl)piperidin-1-yl)-2-azaspiro[3.4]octan-2-yl)-1,3,4-oxadiazole]",63%,0.237 µM,0%,> 25 µM
"c1ccc(C2CCN([C@@H]3CCC4(C3)CN(c3nnco3)C4)CC2)c(OC2COC2)c1 [Example 1D, (R)-2-(6-(4-(2-(oxetan-3-yloxy)phenyl)piperidin-1-yl)-2-azaspiro[3.4]octan-2-yl)-1,3,4-oxadiazole]",89%,0.019 µM,0%,> 25 µM
"c1ccc(C2CCN([C@@H]3CCC4(C3)CN(c3nnco3)C4)CC2)c(OC[C@@H]2COCCO2)c1 [Example 1E, 2-((R)-6-(4-(2-(((S)-1,4-dioxan-2-yl)methoxy)phenyl)piperidin-1-yl)-2-azaspiro[3.4]octan-2-yl)-1,3,4-oxadiazole]",85%,0.057 µM,0%,> 25 µM
CC(C)(O)CCOc1ccccc1C1CCN([C@@H]2CCC3(C2)CN(c2nnco2)C3)CC1 [Example 1F],79%,0.031 µM,0%,> 25 µM
"c1ccc(C2CCN([C@@H]3CCC4(C3)CN(c3nncs3)C4)CC2)c(OCC2COC2)c1 [Example 1G, (R)-2-(6-(4-(2-(oxetan-3-ylmethoxy)phenyl)piperidin-1-yl)-2-azaspiro[3.4]octan-2-yl)-1,3,4-thiadiazole]",80%,0.072 µM,0%,> 25 µM
"FC1(COc2ccccc2C2CCN([C@@H]3CCC4(C3)CN(c3nncs3)C4)CC2)COC1 [Example 1H, (R)-2-(6-(4-(2-((3-fluorooxetan-3-yl)methoxy)phenyl)piperidin-1-yl)-2-azaspiro[3.4]octan-2-yl)-1,3,4-thiadiazole]",88%,0.048 µM,0%,> 25 µM
"c1ccc(C2CCN([C@@H]3CCC4(C3)CN(c3nncs3)C4)CC2)c(OCC2CCOCC2)c1 [Example 1I, (R)-2-(6-(4-(2-((tetrahydro-2H-pyran-4-yl)methoxy)phenyl)piperidin-1-yl)-2-azaspiro[3.4]octan-2-yl)-1,3,4-thiadiazole]",55%,0.616 µM,0%,> 25 µM
"FC1(COc2ccccc2C2CCN([C@@H]3CCC4(C3)CN(c3nncs3)C4)CC2)CCOCC1 [Example 1J, (R)-2-(6-(4-(2-((4-fluorotetrahydro-2H-pyran-4-yl)methoxy)phenyl)piperidin-1-yl)-2-azaspiro[3.4]octan-2-yl)-1,3,4-thiadiazole]",78%,0.182 µM,0%,> 25 µM
"c1ccc(C2CCN([C@@H]3CCC4(C3)CN(c3cncnc3)C4)CC2)c(OC2COC2)c1 [Example 1K, (R)-6-(4-(2-(oxetan-3-yloxy)phenyl)piperidin-1-yl)-2-(pyrimidin-5-yl)-2-azaspiro[3.4]octane]",85%,0.024 µM,0%,> 25 µM
"c1ccc(C2CCN([C@@H]3CCC4(C3)CN(c3cncnc3)C4)CC2)c(OC2CCOCC2)c1 [Example 1L, (R)-2-(pyrimidin-5-yl)-6-(4-(2-((tetrahydro-2H-pyran-4-yl)oxy)phenyl)piperidin-1-yl)-2-azaspiro[3.4]octane]",42%,0.166 µM,0%,> 25 µM
"c1ccc(C2CCN([C@@H]3CCC4(C3)CN(c3cncnc3)C4)CC2)c(OCC2CCOCC2)c1 [Example 1M, (R)-2-(pyrimidin-5-yl)-6-(4-(2-((tetrahydro-2H-pyran-4-yl)methoxy)phenyl)piperidin-1-yl)-2-azaspiro[3.4]octane]",11%,1.55 µM,0%,> 25 µM
"c1ccc(C2CCN([C@@H]3CCC4(C3)CN(c3cncnc3)C4)CC2)c(OCC2COC2)c1 [Example 1N, (R)-6-(4-(2-(oxetan-3-ylmethoxy)phenyl)piperidin-1-yl)-2-(pyrimidin-5-yl)-2-azaspiro[3.4]octane]",70%,0.069 µM,0%,> 25 µM
"c1ccc(C2CCN([C@@H]3CCC4(C3)CN(c3cncnc3)C4)CC2)c(OC2CC3(COC3)C2)c1 [Example 1O, (R)-6-(4-(2-((2-oxaspiro[3.3]heptan-6-yl)oxy)phenyl)piperidin-1-yl)-2-(pyrimidin-5-yl)-2-azaspiro[3.4]octane]",0%,> 25 µM,0%,> 25 µM
"c1ccc(C2CCN([C@@H]3CCC4(C3)CN(c3cncnc3)C4)CC2)c(O[C@@H]2CCOC2)c1 [Example 1P, (R)-2-(pyrimidin-5-yl)-6-(4-(2-(((R)-tetrahydrofuran-3-yl)oxy)phenyl)piperidin-1-yl)-2-azaspiro[3.4]octane]",43%,0.098 µM,0%,> 25 µM
"CC(C)(O)COc1ccccc1C1CCN([C@@H]2CCC3(C2)CN(c2nnco2)C3)CC1 [Example 2A, (R)-1-(2-(1-(2-(1,3,4-oxadiazol-2-yl)-2-azaspiro[3.4]octan-6-yl)piperidin-4-yl)phenoxy)-2-methylpropan-2-ol]",74%,0.147 µM,0%,> 25 µM
"c1ccc(C2CCN([C@@H]3CCC4(C3)CN(c3nnco3)C4)CC2)c(O[C@@H]2CCOC2)c1 [Example 2B, 2-((R)-6-(4-(2-(((R)-tetrahydrofuran-3-yl)oxy)phenyl)piperidin-1-yl)-2-azaspiro[3.4]octan-2-yl)-1,3,4-oxadiazole]",107%,0.036 µM,0%,> 25 µM
COCCOc1ccccc1C1CCN([C@@H]2CCC3(C2)CN(c2nnco2)C3)CC1 [Example 2C],79%,0.059 µM,0%,> 25 µM
"FC1(COc2ccccc2C2CCN([C@@H]3CCC4(C3)CN(c3nnco3)C4)CC2)CCOCC1 [Example 2D, (R)-2-(6-(4-(2-((4-fluorotetrahydro-2H-pyran-4-yl)methoxy)phenyl)piperidin-1-yl)-2-azaspiro[3.4]octan-2-yl)-1,3,4-oxadiazole]",82%,0.141 µM,0%,> 25 µM
"CC1(COc2ccccc2C2CCN([C@@H]3CCC4(C3)CN(c3nnco3)C4)CC2)CCOCC1 [Example 2E, (R)-2-(6-(4-(2-((4-methyltetrahydro-2H-pyran-4-yl)methoxy)phenyl)piperidin-1-yl)-2-azaspiro[3.4]octan-2-yl)-1,3,4-oxadiazole]",78%,0.381 µM,0%,> 25 µM
"COc1ccc(F)cc1C1CCN([C@@H]2CCC3(C2)CN(C(=O)C2COC2)C3)CC1 [Example 6A, (R)-(6-(4-(5-fluoro-2-methoxyphenyl)piperidin-1-yl)-2-azaspiro[3.4]octan-2-yl)(oxetan-3-yl)methanone]",–,–,0%,–
"CCOc1ccccc1C1CCN([C@@H]2CCC3(C2)CN(C(=O)C2COC2)C3)CC1 [Example 7J, (R)-(6-(4-(2-ethoxyphenyl)piperidin-1-yl)-2-azaspiro[3.4]octan-2-yl)(oxetan-3-yl)methanone]",–,–,0%,–
